Experimental data from patent US20240139151A1, “COMPOSITION INCLUDING DECURSINOL AS ACTIVE INGREDIENT FOR PREVENTING OR TREATING SMOOTH MUSCLE CELL PROLIFERATIVE DISEASES” (KYUNGSUNG UNIVERSITY INDUSTRY COOPERATION FOUNDATION, priority 2021, published 2024).
Entries after “also recorded” stand apart in the source; their conditions may differ.

Key:
[1] = test system: vascular smooth cell line A10; assay: Inhibition of high glucose-induced proliferation of A10 cells (EC100); type: cell-based; details: 30 mM D-glucose, 0-500 μM
Experimental: (§1) The vascular smooth cell line A10 was loaded at a density of 1×10^3 cells/ml into 96-well plates and after 16 hours, the medium was replaced with a medium having a concentration of 5.5 mM or 30 mM D-glucose. Subsequently, decursin, decursinol angelate and decursinol were each applied at concentrations of 0, 20, 50, 100, 200, and 500 μM to the cells. IC50, a concentration at which the growth of the cells is inhibited by 50%, and EC100, a concentration which inhibits the growth of cells in a high sugar level environment to a normal cell population, were measured, and therapeutic indices were calculated by dividing IC50 by EC100. […] Then, effects of decursin and decursinol angelate to inhibit the proliferation of A10 cells in high glucose were expressed as EC100. EC100 refers to the concentration at which high glucose-induced proliferation of A10 cells is inhibited to normal glucose levels by the drug.

in vitro = details: rat, IC50, concentration at which the growth of the cells is inhibited by 50% (cytotoxicity)
Experimental: as §1

[2] = Cytotoxicity (IC50) on A10 cells; details: rat, A10 vascular smooth muscle cells, IC50, concentration at which the growth of the cells is inhibited by 50% (cytotoxicity), 0-500 μM, cytotoxicity under normal glucose conditions
Experimental: as §1

[3] = test system: phospho-protein kinase C (p-PKC); assay: Western blotting of phospho-PKC with a pan-phospho-PKC antibody in A10 cells; type: cell-based; details: 30 mM D-glucose, 10 and 25 μM solubilized decursinol, 24 hours
Experimental: Examination was made to see whether the inhibitory effect of decursinol on high sugar-induced proliferation of A10 cells was associated with PKC. […] Then, each well was treated with 10 and 25 μM of solubilized decursinol and incubated for 24 hours. Western blotting was carried out using a pan-phospho-PKC antibody and the results are depicted in FIG. 5.

[4] = test system: vascular smooth cell line A10; details: rat
Experimental: as §1

[5] = test system: vascular smooth muscle cell line A10; assay: Cytotoxicity of decursinol, live and dead cell count; type: cell-based; details: live and dead cells counted
From the text: In order to examine the cytotoxicity of decursinol, both live and dead cells were counted. After treatment with decursinol, 98% or more of live cells were observed alive.

[6] = Blood pressure safety test in rats after two weeks of oral administration; type: in vivo; details: measured the day after final administration
From the text: The present inventors have been studying Angelica gigas Nakai for many years while observing the effect of Angelica gigas Nakai extract on blood pressure. In general, Angelica gigas Nakai is a traditional herb that has been used for food and medicine for a long time because of its excellent hematopoietic, anticancer, antioxidant, and anti-inflammatory actions. However, direct use of the Angelica gigas extract has the problem of inducing high blood pressure according to the preparation thereof. In this Example, the Angelica extracts obtained in Examples 1-1 and 1-2 and 99.9% pure decursinol of the present disclosure were administered to rats and assayed for safety for blood pressure.
Using a blood pressure analyzer (3R229 3 channel rat system, Life Science), rats were measured for blood pressure while being acclimated to blood measurement operation. When the blood pressure analyzer is being operated, laboratory rats are startled by the sound of air pressure and rise in blood pressure. In order to eliminate this effect, after adaptation by repeatedly measuring 5 times a day, the experiment was performed when the blood pressure was kept stable, and the blood pressure was regularly measured every day even during the experiment to adapt the rats to the analyzer. When measuring blood pressure, the head was covered with a handkerchief to block light for stabilization. Fifteen experimental rats were divided into 5 groups of 3 rats for the next administration experiment and measured for blood pressure. A control (physiological saline), the Angelica extracts, and decursinol were each orally administered for two weeks, and the blood pressures measured the next day after the final administration are given in Table 1.

[7] = test system: vascular smooth muscle cell line A10; assay: Effect of decursinol on high sugar-induced proliferation of A10 cells (cell count); type: cell-based
Experimental: The effect of decursinol on the high sugar-induced proliferation of A10 cells was investigated. […] Then, each well was treated with 25 μM of solubilized decursinol, and the cells were counted after 1, 2, and 3 days. The results are depicted in FIG. 4.

For `CC(C)=CC(=O)O[C@H]1Cc2cc3ccc(=O)oc3cc2OC1(C)C` [Decursin, decursin], the “EC100, concentration at which high glucose-induced proliferation of A10 cells is inhibited to normal glucose levels” value [1] was 7.2 µM and the IC50 (in vitro) was 82.7 µM.

With `C/C=C(/C)C(=O)O[C@H]1Cc2cc3ccc(=O)oc3cc2OC1(C)C` [Decursinol angelate, decursinol angelate] the IC50 [2] was 124 µM and the “EC100, concentration at which high glucose-induced proliferation of A10 cells is inhibited to normal glucose levels” value [1] was 4.4 µM.

For `CC1(C)Oc2cc3oc(=O)ccc3cc2C[C@@H]1O` [Decursinol, decursinol], the “Expression level of phospho-PKC in high sugar” value [3] was “significantly decreased the increased expression level of phospho-PKC in high sugar in a dose-dependent manner”, the “EC100, concentration at which high glucose-induced proliferation of A10 cells is inhibited to normal glucose levels” value [1] was 10.1 µM and the IC50 (in vitro) was ≥ 500 µM. The IC50 [4] was > 500 µM, the “Live cells after treatment with decursinol” value [5] was ≥ 98% and the Diastolic blood pressure ([6]; 0.5 mg/kg) was 91 mmHg. The Systolic blood pressure ([6]; 0.5 mg/kg) was 110 mmHg, the Diastolic blood pressure ([6]; 1.0 mg/kg) was 92 mmHg and the Systolic blood pressure ([6]; 1.0 mg/kg) was 110 mmHg. The Diastolic blood pressure ([6]; 2.0 mg/kg) was 92 mmHg, the Systolic blood pressure ([6]; 2.0 mg/kg) was 117 mmHg and the Diastolic blood pressure ([6]; 5.0 mg/kg) was 90 mmHg. For the same compound, the Systolic blood pressure ([6]; 5.0 mg/kg) was 115 mmHg, the “Effect on proliferation of A10 cells at normal sugar concentration” value ([7]; 5.5 mM D-glucose, 25 μM solubilized decursinol, days 1-3) was “did not significantly inhibit; also recorded: not affected” and the “Effect on proliferation of A10 cells in high glucose” value ([7]; 30 mM D-glucose) was “significantly inhibited; also recorded: inhibited cell proliferation in a dose-dependent manner”. The “Inhibition of proliferation of A10 cells in high glucose” value ([7]; 30 mM D-glucose, 25 μM solubilized decursinol, day 3) was “about 20%”.
